Test system: TPM3-NTRK1-wt IC50 / primary target (e.g. CD74-ROS1-wt) IC50, Ba/F3 cells
Experiment: Cell assay TRKA selectivity (TRKA potency divided by primary target potency)
Format: cell-based
Conditions: for TPM3-NTRK1-wt/CD74-ROS1-G2032R: TRKA selectivity ratio: TPM3-NTRK1-wt IC50 / CD74-ROS1-G2032R IC50, Ba/F3 cells; for TPM3-NTRK1-wt/CD74-ROS1-wt: TRKA selectivity ratio: TPM3-NTRK1-wt IC50 / CD74-ROS1-wt IC50, Ba/F3 cells; for TPM3-NTRK1-wt/EML4-ALK-L1196M-G1202R: TRKA selectivity ratio: TPM3-NTRK1-wt IC50 / EML4-ALK-L1196M-G1202R IC50, Ba/F3 cells; for TPM3-NTRK1-wt/EML4-ALK-wt: TRKA selectivity ratio: TPM3-NTRK1-wt IC50 / EML4-ALK-wt IC50, Ba/F3 cells
In short: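 IL-3-independent Ba/F3 lines stably expressing TPM3-TRKA or the primary fusion (e.g. CD74-ROS1 wt) were exposed to 3-fold compound dilutions for 72 h. Viability was read by CellTiter-Glo luminescence, with IC50 from four-parameter logistic fit. Selectivity is TPM3-NTRK1 IC50 divided by primary-target IC50, binned A (>30-fold) to D (<1).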

Row | SMILES | TPM3-NTRK1-wt/CD74-ROS1-G2032R | TPM3-NTRK1-wt/CD74-ROS1-wt | TPM3-NTRK1-wt/EML4-ALK-L1196M-G1202R | TPM3-NTRK1-wt/EML4-ALK-wt
1 | Cc1nn(CC2CC2)c2c1Cc1c(nn(C)c1Cl)-c1ccc(F)cc1[C@@H](C)Oc1cc-2cnc1N [Example 54, (19R)-9-chloro-3-(cyclopropylmethyl)-16-fluoro-5,10,19-trimethyl-20-oxa-3,4,10,11,23-pentaazapentacyclo[19.3.1.0^2,^6.0^8,^12.0^13,^18]pentacosa-1(24),2(6),4,8,11,13,15,17,21(25),22-decaen-22-amine] | A (bin A for very high selectivity, ratio>30-fold) | A (bin A for very high selectivity, ratio>30-fold) | B (bin B for high selectivity, ratio>10-fold) | A (bin A for very high selectivity, ratio>30-fold)
2 | Cc1nc(C#N)c2n1Cc1cccnc1-c1ccc(F)cc1[C@@H](C)Oc1cc-2cnc1N [Example 18, (20R)-23-amino-17-fluoro-5,20-dimethyl-21-oxa-4,6,12,24-tetraazapentacyclo[20.3.1.0^2,^6.0^8,^13.0^14,^19]hexacosa-1(25),2,4,8(13),9,11,14,16,18,22(26),23-undecaene-3-carbonitrile] | A (bin A for very high selectivity, ratio>30-fold) | A (bin A for very high selectivity, ratio>30-fold) | A (bin A for very high selectivity, ratio>30-fold) | A (bin A for very high selectivity, ratio>30-fold)
3 | C[C@H]1Oc2cc(cnc2N)-c2c(C#N)nn(C)c2Cc2ccccc2-c2ccc(F)cc21 [Example 117, (20R)-23-amino-17-fluoro-5,20-dimethyl-21-oxa-4,5,24-triazapentacyclo[20.3.1.0^2,^6.0^8,^13.0^14,^19]hexacosa-1(25),2(6),3,8(13),9,11,14,16,18,22(26),23-undecaene-3-carbonitrile] | A (bin A for very high selectivity, ratio>30-fold) | A (bin A for very high selectivity, ratio>30-fold) | B (bin B for high selectivity, ratio>10-fold) | A (bin A for very high selectivity, ratio>30-fold)
4 | Cc1nc2c(s1)Cn1cnc(C#N)c1-c1cnc(N)c(c1)O[C@H](C)c1cc(F)ccc1-2 [Example 65, (19R)-22-amino-16-fluoro-10,19-dimethyl-20-oxa-9-thia-4,6,11,23-tetraazapentacyclo[19.3.1.0^2,^6.0^8,^12.0^13,^18]pentacosa-1(24),2,4,8(12),10,13(18),14,16,21(25),22-decaene-3-carbonitrile] | A (bin A for very high selectivity, ratio>30-fold) | A (bin A for very high selectivity, ratio>30-fold) | B (bin B for high selectivity, ratio>10-fold) | A (bin A for very high selectivity, ratio>30-fold)
5 | CCc1nnn2c1-c1cnc(N)c(c1)O[C@H](C)c1cc(F)ccc1-c1nn(C)cc1C2 [Example 23, (19R)-3-ethyl-16-fluoro-10,19-dimethyl-20-oxa-4,5,6,10,11,23-hexaazapentacyclo[19.3.1.0^2,^6.0^8,^12.0^13,^18]pentacosa-1(24),2,4,8,11,13,15,17,21(25),22-decaen-22-amine] | A (bin A for very high selectivity, ratio>30-fold) | A (bin A for very high selectivity, ratio>30-fold) | C (bin C for moderate selectivity, ratio≥1) | A (bin A for very high selectivity, ratio>30-fold)
6 | CCn1nnc2c1-c1cnc(N)c(c1)O[C@H](C)c1cc(F)ccc1-c1ncc(F)cc1C2 [Example 70, (20R)-3-ethyl-10,17-difluoro-20-methyl-21-oxa-3,4,5,12,24-pentaazapentacyclo[20.3.1.0^2,^6.0^8,^13.0^14,^19]hexacosa-1(25),2(6),4,8(13),9,11,14,16,18,22(26),23-undecaen-23-amine] | A (bin A for very high selectivity, ratio>30-fold) | A (bin A for very high selectivity, ratio>30-fold) | C (bin C for moderate selectivity, ratio≥1) | A (bin A for very high selectivity, ratio>30-fold)
7 | C[C@H]1Oc2cc(cnc2N)-c2c(C#N)nn(C)c2Cc2scnc2-c2ccc(F)cc21 [Example 94, (19R)-22-amino-16-fluoro-5,19-dimethyl-20-oxa-9-thia-4,5,11,23-tetraazapentacyclo[19.3.1.0^2,^6.0^8,^12.0^13,^18]pentacosa-1(24),2(6),3,8(12),10,13,15,17,21(25),22-decaene-3-carbonitrile] | A (bin A for very high selectivity, ratio>30-fold) | A (bin A for very high selectivity, ratio>30-fold) | A (bin A for very high selectivity, ratio>30-fold) | A (bin A for very high selectivity, ratio>30-fold)
8 | C[C@H]1Oc2cc(cnc2N)-c2c(C3CCC3)noc2Cc2cn(C)nc2-c2ccc(F)cc21 [Example 26, (19R)-3-cyclobutyl-16-fluoro-10,19-dimethyl-5,20-dioxa-4,10,11,23-tetraazapentacyclo[19.3.1.0^2,^6.0^8,^12.0^13,^18]pentacosa-1(24),2(6),3,8,11,13,15,17,21(25),22-decaen-22-amine] | A (bin A for very high selectivity, ratio>30-fold) | A (bin A for very high selectivity, ratio>30-fold) | B (bin B for high selectivity, ratio>10-fold) | A (bin A for very high selectivity, ratio>30-fold)
9 | CCn1ncc2c1-c1cnc(N)c(c1)O[C@H](C)c1cc(F)ccc1-n1nc(C#N)cc1C2 [Example 51, (19R)-22-amino-3-ethyl-16-fluoro-19-methyl-20-oxa-3,4,11,12,23-pentaazapentacyclo[19.3.1.0^2,^6.0^8,^12.0^13,^18]pentacosa-1(24),2(6),4,8,10,13,15,17,21(25),22-decaene-10-carbonitrile] | C (bin C for moderate selectivity, ratio≥1) | C (bin C for moderate selectivity, ratio≥1) | C (bin C for moderate selectivity, ratio≥1) | D (bin D for low selectivity, ratio<1)
10 | CCc1c(C#N)nn2c1-c1cnc(N)c(c1)O[C@H](C)c1cc(F)ccc1-c1nn(C)cc1C2 [Example 6, (19R)-22-amino-3-ethyl-16-fluoro-10,19-dimethyl-20-oxa-5,6,10,11,23-pentaazapentacyclo[19.3.1.0^2,^6.0^8,^12.0^13,^18]pentacosa-1(24),2,4,8,11,13,15,17,21(25),22-decaene-4-carbonitrile] | A (bin A for very high selectivity, ratio>30-fold) | A (bin A for very high selectivity, ratio>30-fold) | C (bin C for moderate selectivity, ratio≥1) | A (bin A for very high selectivity, ratio>30-fold)
11 | C[C@H]1Oc2cc(cnc2N)-c2c(cnn2CC2CC2)Cc2cn(C)nc2-c2ccc(F)cc21 [Example 121, (19R)-3-(cyclopropylmethyl)-16-fluoro-10,19-dimethyl-20-oxa-3,4,10,11,23-pentaazapentacyclo[19.3.1.0^2,^6.0^8,^12.0^13,^18]pentacosa-1(24),2(6),4,8,11,13,15,17,21(25),22-decaen-22-amine] | A (bin A for very high selectivity, ratio>30-fold) | A (bin A for very high selectivity, ratio>30-fold) | A (bin A for very high selectivity, ratio>30-fold) | A (bin A for very high selectivity, ratio>30-fold)
12 | C[C@H]1Oc2cc(cnc2N)-c2c(cnn2CC(F)F)Cc2cc(C(F)(F)F)nn2-c2ccc(F)cc21 [Example 84, (19R)-3-(2,2-difluoroethyl)-16-fluoro-19-methyl-10-(trifluoromethyl)-20-oxa-3,4,11,12,23-pentaazapentacyclo[19.3.1.0^2,^6.0^8,^12.0^13,^18]pentacosa-1(24),2(6),4,8,10,13,15,17,21(25),22-decaen-22-amine] | A (bin A for very high selectivity, ratio>30-fold) | A (bin A for very high selectivity, ratio>30-fold) | C (bin C for moderate selectivity, ratio≥1) | A (bin A for very high selectivity, ratio>30-fold)
13 | CCc1noc2c1-c1cnc(N)c(c1)O[C@H](C)c1cc(F)cc(F)c1-c1nn(C)cc1C2 [Example 90, (19R)-3-ethyl-14,16-difluoro-10,19-dimethyl-5,20-dioxa-4,10,11,23-tetraazapentacyclo[19.3.1.0^2,^6.0^8,^12.0^13,^18]pentacosa-1(24),2(6),3,8,11,13,15,17,21(25),22-decaen-22-amine] | A (bin A for very high selectivity, ratio>30-fold) | A (bin A for very high selectivity, ratio>30-fold) | C (bin C for moderate selectivity, ratio≥1) | A (bin A for very high selectivity, ratio>30-fold)

— US11667649B2, “Heteroaromatic macrocyclic ether chemotherapeutic agents” (Nuvalent, Inc., priority 2020, dated 2023)
